# Results from ChEMBL document CHEMBL1127932, “6-isoxazolinyl and isoxazolidinyl substituted quinazolinones as angiotensin II receptor antagonists” (Bioorg Med Chem Lett, 1994).
# pIC50: −log10 of the molar value.
# Molecular target: T1, Type-1 angiotensin II receptor (Bos taurus, UniProt P25104)
# T1 sequence (P25104 whole entry): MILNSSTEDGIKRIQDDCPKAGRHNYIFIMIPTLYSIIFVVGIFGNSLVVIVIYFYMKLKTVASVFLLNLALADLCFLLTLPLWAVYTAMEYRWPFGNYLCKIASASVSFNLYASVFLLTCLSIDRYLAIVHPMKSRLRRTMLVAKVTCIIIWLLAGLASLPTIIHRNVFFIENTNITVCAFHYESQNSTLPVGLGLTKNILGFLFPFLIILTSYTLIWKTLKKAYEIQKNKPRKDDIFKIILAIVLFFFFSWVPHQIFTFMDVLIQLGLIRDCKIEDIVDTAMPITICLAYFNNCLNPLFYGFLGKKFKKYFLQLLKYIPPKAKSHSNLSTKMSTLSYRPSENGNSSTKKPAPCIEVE
# Assay: In vitro Angiotensin II receptor antagonism in bovine adrenal cortex tissue.
# Format: functional, tissue-based
# Conditions: not given
row,Compound,pIC50
1,CCCCc1nc2ccc([C@@]3(C)C[C@H]4CCC(C)(C)N4O3)cc2c(=O)n1Cc1ccc(-c2ccccc2-c2nnn[nH]2)cc1,7.15
2,CCCCc1nc2ccc(C3CC(c4cc(C)cs4)=NO3)cc2c(=O)n1Cc1ccc(-c2ccccc2-c2nnn[nH]2)cc1 (stereo not given),6.39
3,CCCCc1nc2ccc(C3(C)CC(C(=O)OCC)=NO3)cc2c(=O)n1Cc1ccc(-c2ccccc2-c2nn[nH]n2)cc1 (stereo not given),6.85
4,CCCCc1nc2ccc(C3CC(c4cc(C)co4)=NO3)cc2c(=O)n1Cc1ccc(-c2ccccc2-c2nnn[nH]2)cc1 (stereo not given),6.74
5,CCCCc1nc2ccc([C@H]3ON4CCCC4C3C(=O)OCC)cc2c(=O)n1Cc1ccc(-c2ccccc2-c2nn[nH]n2)cc1 (stereo not given in full),7.16
6,CCCCc1nc2ccc([C@]3(C(=O)OC)C[C@H]4CCCN4O3)cc2c(=O)n1Cc1ccc(-c2ccccc2-c2nnn[nH]2)cc1,7.10
7,CCCCc1nc2ccc([C@]3(C(=O)O)C[C@H]4CCCN4O3)cc2c(=O)n1Cc1ccc(-c2ccccc2-c2nnn[nH]2)cc1,7.34
8,CCCCc1nc2ccc([C@]3(CC)C[C@H]4CCCN4O3)cc2c(=O)n1Cc1ccc(-c2ccccc2-c2nnn[nH]2)cc1,7.08
9,CCCCc1nc2ccc(C3CC(C(=O)O)=NO3)cc2c(=O)n1Cc1ccc(-c2ccccc2-c2nn[nH]n2)cc1 (stereo not given),6.30
10,CCCCc1nc(Cl)c(CO)n1Cc1ccc(-c2ccccc2-c2nnn[nH]2)cc1 [LOSARTAN],6.48

# Next, values leading:
row,pIC50,Compound
1,7.16,CCCCc1nc2ccc(C3(C(=O)N4CCCC4)C[C@H]4CCCN4O3)cc2c(=O)n1Cc1ccc(-c2ccccc2-c2nnn[nH]2)cc1 (stereo not given in full)
2,7.21,CCCCc1nc2ccc(C3(C(=O)N4CCCCC4)C[C@H]4CCCN4O3)cc2c(=O)n1Cc1ccc(-c2ccccc2-c2nn[nH]n2)cc1 (stereo not given in full)
3,7.26,CCCCc1nc2ccc([C@@]3(C)C[C@H]4CCCN4O3)cc2c(=O)n1Cc1ccc(-c2ccccc2-c2nn[nH]n2)cc1
4,7.24,CCCCc1nc2ccc([C@]3(C(=O)N(C)C)C[C@H]4CCCN4O3)cc2c(=O)n1Cc1ccc(-c2ccccc2-c2nnn[nH]2)cc1
5,7.25,CCCCc1nc2ccc([C@]3(c4ccccc4)C[C@H]4CCCN4O3)cc2c(=O)n1Cc1ccc(-c2ccccc2-c2nnn[nH]2)cc1
6,7.19,CCCCc1nc2ccc([C@]3(C)C[C@H]4CCC(C)(C)N4O3)cc2c(=O)n1Cc1ccc(-c2ccccc2-c2nnn[nH]2)cc1
7,7.24,CCCCc1nc2ccc([C@@]3(CC)C[C@H]4CCCN4O3)cc2c(=O)n1Cc1ccc(-c2ccccc2-c2nnn[nH]2)cc1
8,7.41,CCCCc1nc2ccc([C@@H]3C[C@H]4CCC(C)(C)N4O3)cc2c(=O)n1Cc1ccc(-c2ccccc2-c2nnn[nH]2)cc1
9,7.46,CCCCc1nc2ccc([C@]3(CO)C[C@H]4CCCN4O3)cc2c(=O)n1Cc1ccc(-c2ccccc2-c2nnn[nH]2)cc1
10,7.19,CCCCc1nc2ccc([C@@H]3C[C@@]4(C)CCCCN4O3)cc2c(=O)n1Cc1ccc(-c2ccccc2-c2nn[nH]n2)cc1
11,7.57,CCCCc1nc2ccc([C@]3(C)C[C@H]4CCCN4O3)cc2c(=O)n1Cc1ccc(-c2ccccc2-c2nn[nH]n2)cc1
12,7.49,CCCCc1nc2ccc([C@@H]3C[C@H]4CCCN4O3)cc2c(=O)n1Cc1ccc(-c2ccccc2-c2nnn[nH]2)cc1
13,7.51,CCCCc1nc2ccc(C(C)(C)OC)cc2c(=O)n1Cc1ccc(-c2ccccc2-c2nn[nH]n2)cc1 [CL-329167]

# Molecular target: T2, Angiotensin II receptor (Rattus norvegicus, UniProt P29089+P25095+P35351)
# T2 sequence (P29089 whole entry): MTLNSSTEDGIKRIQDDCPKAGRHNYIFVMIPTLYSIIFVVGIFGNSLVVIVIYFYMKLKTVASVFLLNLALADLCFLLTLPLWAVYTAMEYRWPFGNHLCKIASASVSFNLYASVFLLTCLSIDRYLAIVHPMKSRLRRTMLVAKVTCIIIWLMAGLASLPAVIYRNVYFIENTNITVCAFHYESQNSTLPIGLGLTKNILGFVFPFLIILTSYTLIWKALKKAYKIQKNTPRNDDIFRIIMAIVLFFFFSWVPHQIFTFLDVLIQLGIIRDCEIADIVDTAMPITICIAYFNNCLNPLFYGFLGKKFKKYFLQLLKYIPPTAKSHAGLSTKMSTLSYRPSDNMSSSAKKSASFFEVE
# T2 sequence (P25095 whole entry): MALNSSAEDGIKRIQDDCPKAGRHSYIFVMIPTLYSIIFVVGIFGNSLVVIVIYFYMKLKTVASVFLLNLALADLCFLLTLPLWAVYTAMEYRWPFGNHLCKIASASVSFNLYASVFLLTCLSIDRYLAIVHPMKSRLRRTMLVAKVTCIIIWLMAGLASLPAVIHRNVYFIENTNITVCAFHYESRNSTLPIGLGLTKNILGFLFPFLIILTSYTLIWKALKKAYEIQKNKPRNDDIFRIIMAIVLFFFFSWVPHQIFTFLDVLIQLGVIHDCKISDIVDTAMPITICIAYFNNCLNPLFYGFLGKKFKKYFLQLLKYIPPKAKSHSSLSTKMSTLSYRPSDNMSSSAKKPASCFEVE
# T2 sequence (P35351 whole entry): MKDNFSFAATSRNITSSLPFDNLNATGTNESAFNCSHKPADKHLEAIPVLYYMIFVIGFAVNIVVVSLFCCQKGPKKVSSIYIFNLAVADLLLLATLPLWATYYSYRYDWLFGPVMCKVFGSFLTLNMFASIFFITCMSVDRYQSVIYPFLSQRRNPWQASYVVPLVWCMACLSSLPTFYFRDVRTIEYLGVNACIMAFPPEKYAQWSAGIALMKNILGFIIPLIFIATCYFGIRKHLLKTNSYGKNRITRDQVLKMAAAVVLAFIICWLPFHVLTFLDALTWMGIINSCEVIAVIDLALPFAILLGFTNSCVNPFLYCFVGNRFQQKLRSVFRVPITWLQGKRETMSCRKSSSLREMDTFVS
# Assay: In vitro Angiotensin II receptor antagonist activity in rat adrenal cortex tissue.
# Format: functional, tissue-based
# Conditions: not given
row,Compound,IC50
1,CCCCc1nc2ccc(C3CCCO3)cc2c(=O)n1Cc1ccc(-c2ccccc2-c2nn[nH]n2)cc1 (stereo not given),0.011 µM
2,CCCCc1nc2ccc(C3C=CCO3)cc2c(=O)n1Cc1ccc(-c2ccccc2-c2nn[nH]n2)cc1 (stereo not given),0.005 µM
3,CCCCc1nc2ccc(-c3ccco3)cc2c(=O)n1Cc1ccc(-c2ccccc2-c2nn[nH]n2)cc1,0.047 µM
4,CCCCc1nc2ccc(-c3cccs3)cc2c(=O)n1Cc1ccc(-c2ccccc2-c2nn[nH]n2)cc1,0.044 µM

# Tested on: Rattus norvegicus
# Assay: In vivo change in mean arterial blood pressure in conscious renin-dependent […] hypertensive rats at 1 mg/kg, p.o. after 2 hr
# Format: functional
# Conditions: route oral
row,Compound,Activity
1,CCCCc1nc2ccc([C@]3(C)C[C@H]4CCCN4O3)cc2c(=O)n1Cc1ccc(-c2ccccc2-c2nn[nH]n2)cc1,-5.5 mmHg

# Tested on: Rattus norvegicus
# Assay: In vivo change in mean arterial blood pressure in conscious renin-dependent […] hypertensive rats at 1 mg/kg, p.o. after 30 min
# Format: functional
# Conditions: route oral
row,Compound,Activity
1,CCCCc1nc2ccc([C@]3(C)C[C@H]4CCCN4O3)cc2c(=O)n1Cc1ccc(-c2ccccc2-c2nn[nH]n2)cc1,-3 mmHg

# Tested on: Rattus norvegicus
# Assay: Percent inhibition of AII vasopressor response in SHR at 5 mg/kg of oral dose after 5 hr in hypertensive rats
# Format: functional
# Conditions: not given
row,Compound,inhibition in vivo at 5 mg/kg
1,CCCCc1nc(Cl)c(CO)n1Cc1ccc(-c2ccccc2-c2nnn[nH]2)cc1 [LOSARTAN],50%
